Source: publication PMC12040169 (PLOS Biology, 2025)

Assay: in vitro
Conditions: human, hela cells, % viability

Row | SMILES | viability at 28.5 h, 10 µM [%]
1 | O=c1[nH]cnc2c1ncn2[C@@H]1O[C@H](CO)[C@H](O)C1O (stereo partly drawn) [CBK201186] | 98.3
2 | CC(=O)Nc1ccc(-c2cncc(Nc3ccc4c(c3)OC(F)(F)C(F)(F)O4)n2)cc1 [CBK065726] | 98.7
3 | CC(C)Oc1ccc(C(=O)C2=C(O)C(=O)N(CCN(C)C)C2c2ccccc2F)cc1 (stereo not drawn) [CBK264886] | 102
4 | COc1ccccc1Oc1nnnn1-c1ccc(C(N)=O)cc1 [CBK267988] | 96
5 | O=S(=O)(Nc1cc(F)cc(F)c1F)c1cc(OC2CCNCC2)c2occc2c1 [CBK082814C] | 83.9
6 | O=C(CC1(C(=O)O)CCCC1)NC1CCS(=O)(=O)C1 (stereo not drawn) [CBK286855] | 92.3
7 | O=C1NC2(CCN(C(=O)Cc3ccsc3)CC2)Nc2ccccc21 [CBK283963] | 94.7
8 | CN(Cc1nc(-c2ccccc2)no1)C(=O)C1CC2(CCNCC2)CN1 (stereo not drawn) [CBK306585] | 88.7
9 | O=C([C@@H]1Cc2c([nH]c3ccccc23)C2(CCN(Cc3ccccc3)C2)N1)N1CCOCC1 (stereo partly drawn) [CBK059363T] | 97.3
10 | CCOC(=O)c1sc(-c2ccccc2)nc1O [CBK074298] | 96.9
11 | CC(C)[C@@H](CO)Nc1cncc(-c2cccc(CO)c2)n1 [CBK065427] | 95.2
12 | O=C(Nc1ncc(Cc2ccc(F)cc2)s1)c1csc2c1CCCC2 [CBK300489] | 90.2
13 | Cc1ccc2cc(CN(Cc3ccccc3)S(C)(=O)=O)c(O)nc2c1 [CBK269329] | 94.4
14 | O=C(C1CC1)N1CCC(C(=O)N(Cc2ccco2)c2ccccc2)CC1 [CBK298269] | 85.8
15 | Clc1ccc(-n2ccnc2)cc1 [CBK012658] | 107
16 | CCOC(=O)CC(=O)N1CCC(c2onc3c2CC(C)CC3)CC1 (stereo not drawn) [CBK285187] | 100
17 | CCCCn1c(=O)c(C(=O)Nc2ccccc2S(N)(=O)=O)c(O)c2ccccc21 [CBK262260] | 98.6
18 | O=S(=O)(c1cccc2nsnc12)N1CCN(C2CCCCC2)CC1 [CBK268173] | 96.9
19 | COc1ccnc(N2CCN(C(=O)CCc3ccsc3)CC2)n1 [CBK306350] | 90.5
20 | O=C(CN1CCN(c2ccc(C(F)(F)F)cn2)CC1)Nc1ccc2c(c1)OCO2 [CBK074680] | 102
21 | CC1(C)CC(NS(=O)(=O)c2ccc(Br)cc2)CC(C)(C)N1 [CBK266805] | 97.7
22 | CC(C)NC(=S)NC(=O)C1CCC1 [CBK010718] | 86.2

Row | SMILES | viability at 28.5 h, 10 µM [%]
23 | N#CC1C(=S)NC2=C(CCCC2)C12CCCCC2 (stereo not drawn) [CBK288493] | 103
24 | CC(C)[C@H](CO)n1c(=O)[nH]c2ncc(-c3cccc4ccccc34)nc21 [CBK064985] | 104
25 | CCN1CCC(CC(=O)N2CCC(c3ccccc3)C2)CC1 (stereo not drawn) [CBK281958] | 79.5
26 | O=C(NCCO)c1cccc(-c2cncc(N3CCCCC3CCO)n2)c1 (stereo not drawn) [CBK037759] | 104
27 | Cc1occc1C(=O)Nc1nc(CC(=O)N(C)Cc2ccsc2)cs1 [CBK305631] | 83.8
28 | CCNC(=O)Nc1cc2cccnc2c(-c2ccsc2)n1 [CBK081226] | 106
29 | CC(=S)NCC1CC(c2ccc(N3CC[S+]([O-])CC3)c(F)c2)=NO1 (stereo not drawn) [CBK017992] | 110
30 | Cc1cc(=O)oc2cc(NC(=S)NNC(=O)c3ccc(Cl)s3)ccc12 [CBK266828] | 92.3
31 | CCCNC(=O)c1cc(C2CCCN(Cc3ccccc3)C2)no1 (stereo not drawn) [CBK283388] | 98
32 | COCCCOc1nc2cc(Cl)c(Cl)cc2nc1N1CCCC1 [CBK115773] | 95.9
33 | Cc1ccc(C)c(NC(=O)C(C)Sc2nc3ccccc3nc2C)c1 (stereo not drawn) [CBK296744] | 106
34 | CNc1sc(C(=O)c2ccc(OC)c(OC)c2)c(N)c1C#N [CBK270194] | 86.1
35 | Cc1ccn(CCNC(=O)c2ccc3c(C)c(C)[nH]c3c2)n1 [CBK282519] | 101
36 | CC(=O)Nc1cccc(C(=O)N2CCC(OCc3ccccn3)CC2)c1 [CBK307009] | 114
37 | CC(C)CCN(Cc1ccc(-c2ccc(S(C)(=O)=O)cc2)nc1)C1CCN(C(=O)OC(C)(C)C)CC1 [CBK165138] | 83.4
38 | C=CCN1C(=O)CC2(C1=O)C(=O)N(CCCN(C)S(C)(=O)=O)c1ccc(Cl)cc12 (stereo not drawn) [CBK075432] | 97.3
39 | c1ccc(CCN2CCC(c3nc(-c4ccccc4)no3)CC2)cc1 [CBK051454] | 89.8
40 | COCCNC(=O)c1nnn(-c2ccc(Br)cc2)c1C [CBK300524] | 93.3
41 | N#Cc1cccc(S(=O)(=O)Nc2cccc(C(=O)O)c2)c1 [CBK155699] | 95.7
42 | COc1cccc(CNC(=O)c2cc3c(nc2N)CCN(Cc2cccc(C)c2OC)C3)c1 [CBK285682] | 98.6
43 | COc1ccc(-c2cnc3[nH]c(=O)n(CC(C)(C)CO)c3n2)c(OC)c1OC [CBK064833] | 91.8
44 | O=C(Nc1ccc(-c2c3ccccc3c(-c3ccc(NC(=O)c4cccc5ccccc45)cc3)c3ccccc23)cc1)c1cccc2ccccc12 [CBK261164] | 93.6

Row | SMILES | viability at 28.5 h, 10 µM [%]
45 | CN(CC1COc2ccccc2O1)C(=O)CC1CCN(C(=O)CC2CCCCC2)CC1 (stereo not drawn) [CBK286265] | 92.7
46 | Cc1cc2c(N3CCN(Cc4nc5ccccc5[nH]4)CC3)ncnc2s1 [CBK268213C] | 101
47 | Cc1c(C(=O)N2CCS(=O)(=O)CC2)nnn1-c1ccc2ncccc2c1 [CBK305529] | 112
48 | CC1CCCCN1Cc1nc2c(c(=O)n(C)c(=O)n2C)n1CCc1ccccc1 (stereo not drawn) [CBK269189] | 117
49 | O=C(Cn1ccc2ccc(F)cc21)Nc1cccc(-n2cnnc2)c1 [CBK282570] | 111
50 | CCOc1nc(=O)c(C)cn1C1CC(O)C(CO)O1 (stereo not drawn) [CBK201334] | 96.5
51 | CN(C)C(=O)CN1CCCC2(CCN(C(=O)c3cc(F)c(F)cc3F)C2)C1 (stereo not drawn) [CBK132024] | 93.5
52 | CC(=O)Nc1ccc(OCC(O)Cn2cnc3cc(C)c(C)cc32)cc1 (stereo not drawn) [CBK304545] | 93.3
53 | CCc1nnc(NC(=O)CSc2nc3c([nH]2)c(=O)n(C)c(=O)n3C)s1 [CBK025840] | 113
54 | CC(C)Nc1nccnc1OCCOc1cccc(O)c1 [CBK115878] | 101
55 | Nc1ncc(-c2ccoc2)nc1-c1ccc(C(=O)N2CCOCC2)cc1 [CBK064076] | 101
56 | CCOC(=O)c1cc(C(C)C)sc1NC(=O)C1C2C=CC(C2)C1C(=O)O (stereo not drawn) [CBK265417] | 95.4
57 | N#Cc1ccc(-c2cncc(NC3CCC(O)CC3)n2)cc1 (stereo not drawn) [CBK166007T] | 88.2
58 | O=C(Cn1cnc2c(cnn2-c2ccc(F)cc2)c1=O)NCc1ccccc1 [CBK287538] | 93.1
59 | CCc1cc2c(NC(C(=O)O)C(C)C)ncnc2s1 (stereo not drawn) [CBK265349] | 97.7
60 | O=C1NC2(CCSC2)C(=O)N1Cc1noc(-c2cccs2)n1 (stereo not drawn) [CBK306225] | 90.6
61 | Cc1cccn2c(=O)c(/C=C3\SC(=S)N(Cc4ccccc4)C3=O)c(NCCCn3ccnc3)nc12 [CBK263833] | 102
62 | COC(=O)CCc1ccc(Oc2ncc(C(F)(F)F)cc2Cl)cc1 [CBK161628] | 111
63 | Cc1ccc2cc(CN(CC(C)C)S(C)(=O)=O)c(O)nc2c1 [CBK269593] | 101
64 | CCn1nc(C(C)C)cc1C(=O)NCCN1CCC(C)CC1 [CBK282107] | 85.6
65 | Cc1c(Cl)cccc1S(=O)(=O)Nc1c(C(=O)O)[nH]c2ccccc12 [CBK049889] | 86.5
66 | CC(C)N1C[C@@H](C(=O)NC(C)(C)C)[C@@]2(Cc3ccccc3C(=O)N2)C1 [CBK285295] | 101

Row | SMILES | viability at 28.5 h, 10 µM [%]
67 | O=C(O)CC1(CC(=O)N2CC[C@H]3NC(=O)N(c4ccc(F)cc4)C(=O)[C@H]32)CCCC1 [CBK289327] | 97.7
68 | CCCc1cc(C(=O)OC)c(NC(=O)c2c(C)noc2C)s1 [CBK058088] | 92.5
69 | CC(C)(C)OC(=O)N1CCC(c2nc3ccc(F)cc3cc2N)CC1 [CBK284658] | 88.9
70 | COc1ncccc1-c1csc(C2CN3CCCC3CO2)n1 (stereo not drawn) [CBK304110] | 83.5
71 | Oc1cccc(/C=N/c2nnn[nH]2)c1 [CBK260977] | 91.7
72 | O=C(c1cc(F)c(F)cc1F)N1CCC2(CCCN(CCS(=O)(=O)c3ccccc3)C2)C1 (stereo not drawn) [CBK132003] | 105
73 | CC(=O)c1ccc(C(=O)Nc2sc3c(c2C#N)CCN(C(C)=O)C3)cc1 [CBK304418] | 84.8
74 | Cc1cc(C)cc(C(=O)N2CCC(NC(=O)c3cnn(C)c3)CC2)c1 [CBK305723] | 92.3
75 | O=C1CC(=O)N(Cc2ccccc2)C(=O)N1 [CBK224014] | 91.7
76 | c1coc(CNc2ncc(-c3ccc(N4CCOCC4)cc3)n3ccnc23)c1 [CBK091220] | 102
77 | C=C(C)Cn1c(SCC(C)C)nnc1-c1ccccc1F [CBK200077] | 107
78 | Cc1noc(C)c1S(=O)(=O)NCc1ccc(C(F)(F)F)c(F)c1 [CBK062112] | 94.2
79 | Cc1ccc(-c2ccc(Nc3ccc(Oc4ccccc4)cc3)nc2)cc1C [CBK037740] | 92.7
80 | COc1cccc(Nc2cc(-c3cccc(N)c3)ncn2)c1OC [CBK090726] | 104
81 | C/C(=C(/C(=O)N(N)c1nc2ccccc2s1)C(=O)C(F)(F)F)N1CCC(C(N)=O)(N2CCCCC2)CC1 [CBK265787] | 101
82 | CC(C)NC(=O)CCNc1ncc(C(N)=O)cc1Cl [CBK306373] | 92.9
83 | CCOC(=O)C1=C(Nc2ccc(O)cc2)C(=O)N(C(C)(C)C)C1 [CBK005677] | 83
84 | CC(=O)N1CCC[C@H]2NC(=O)CNC(=O)C3(C/C=C/C[C@H]21)CCN(Cc1cc[nH]n1)CC3 [CBK292164] | 103
85 | Cc1cc(C)c2oc(-c3cccc(NC(=O)c4cccc(Cl)c4Cl)c3C)nc2c1 [CBK264005] | 84.2
86 | FC(F)(F)c1ccc(CNc2nccnc2-c2cccs2)cc1 [CBK036834] | 98.6

Same assay, conditions: human, hela cells, % viability, bulk resorufin, single well

Row | SMILES | viability at 28.5 h, 10 µM [%]
87 | O=C1C(=CNCCc2c[nH]c3ccccc23)C(=O)N(c2ccccc2)C(=S)N1c1ccccc1 [CBK265557] | 98.5
